Source: patent US7989494B2, “Polymorphs of N-hydroxy-3-[4-[[[2-(2-methyl-1H-indol-3-yl)ethyl]amino]methyl]phenyl]-2E-2-propenamide” (Novartis AG, priority 2006, dated 2011)
Values after ≈ are worked out from the molar mass of the structure shown. Counter-ions that a name gives are not always drawn. Like-named read-outs stand apart in the source and are kept apart here. Each block holds one molecule with its values, some of them ahead of it.

Legend:
Type in all cases: physicochemical
[1] = Equilibration in solvents and aqueous media, solid form by XRPD
[2] = Hygroscopicity (descriptive)
[3] = Aqueous solubility; details: water
[4] = Solubility in organic solvents; details: for solubility: organic solvent or mixture
[5] = Hydration/dehydration of free base forms on storage or under vacuum; details: for form change upon storage: storage at ambient conditions
[6] = Sorption-desorption isotherms, VTI humidity balance; details: for Sorption: 25° C., first sorption cycle; for Desorption: in % (unit assumed)
Protocol: Sorption-desorption isotherms were recorded by a VTI humidity balance. The salts of (N-hydroxy-3-[4-[[[2-(2-methyl-1H-indol-3-yl)ethyl]amino]methyl]phenyl]-2E-2-propenamide were first subjected to a drying step (25° C., r.h. below 2%, 2 hours) and then to a sorption-desorption-sorption sequence, with each RH % step retained for 3 hours. The free base was kept below 2% r.h. for several hours, and thus was completely dehydrated after the drying step. Only the data of the first sorption cycle are given in the table, since, in all cases, the two sorption cycles were very similar.

[7] = Intrinsic dissolution

solubility in hot ethanol ([4]; listed as Form A): soluble
Structure (SMILES): Cc1[nH]c2ccccc2c1CCNCc1ccc(/C=C/C(=O)NO)cc1 [free base form A, N-hydroxy-3-[4-[[[2-(2-methyl-1H-indol-3-yl)ethyl]amino]methyl]phenyl]-2E-2-propenamide]

solubility in hot ethanol-water mixture ([4]; hot ethanol-water mixture): soluble
form change upon storage ([5]; listed as Form C): spontaneously rehydrate to form HA
form change upon storage ([5]; listed as form C): rehydrate back to form HA
Structure (SMILES): Cc1[nH]c2ccccc2c1CCNCc1ccc(/C=C/C(=O)NO)cc1 [free base form C, N-hydroxy-3-[4-[[[2-(2-methyl-1H-indol-3-yl)ethyl]amino]methyl]phenyl]-2E-2-propenamide]

hygroscopicity [2]: non-hygroscopic
Structure (SMILES): Cc1[nH]c2ccccc2c1CCNCc1ccc(/C=C/C(=O)NO)cc1 [white crystalline solid, N-hydroxy-3-[4-[[[2-(2-methyl-1H-indol-3-yl)ethyl]amino]methyl]phenyl]-2E-2-propenamide]

solubility ([4]; ethanol, read-out: solubility in ethanol): ~1500 µg/mL (≈ 4.29 mM)
solubility ([4]; ethyl acetate, read-out: solubility in ethyl acetate): ~5600 µg/mL (≈ 16 mM)
solubility ([4]; methanol, read-out: solubility in methanol): ~2300 µg/mL (≈ 6.58 mM)
aqueous solubility [3]: approximately 0.004 mg/mL
hygroscopicity [2]: slightly hygroscopic
Structure (SMILES): Cc1[nH]c2ccccc2c1CCNCc1ccc(/C=C/C(=O)NO)cc1 [free base form HA, N-hydroxy-3-[4-[[[2-(2-methyl-1H-indol-3-yl)ethyl]amino]methyl]phenyl]-2E-2-propenamide]
form change under vacuum ([5]; under vacuum even at ambient temperature): completely dehydrates and converts to form C

hygroscopicity [2]: visibly hygroscopic
Structure (SMILES): Cc1[nH]c2ccccc2c1CCNCc1ccc(/C=C/C(=O)NO)cc1 [Form A of the sulfate salt, N-hydroxy-3-[4-[[[2-(2-methyl-1H-indol-3-yl)ethyl]amino]methyl]phenyl]-2E-2-propenamide]

XRPD form after equilibration ([1]; 2-Propanol): No change
XRPD form after equilibration ([1]; Acetone): No change
XRPD form after equilibration ([1]; Ethanol): Changed to new
XRPD form after equilibration ([1]; Ethyl Acetate): No change
XRPD form after equilibration ([1]; Methanol): Changed to new
XRPD form after equilibration ([1]; pH = 6.8 buffer (phosphate)): No change
XRPD form after equilibration ([1]; water): No change
Sorption ([6]; Sample RH % 1.5): 0%
Sorption ([6]; Sample RH % 5): 0.06%
Desorption ([6]; Sample RH % 5): 4.11
Sorption ([6]; Sample RH % 25): 3.39%
Desorption ([6]; Sample RH % 25): 5.11
Sorption ([6]; Sample RH % 50): 5.17%
Desorption ([6]; Sample RH % 50): 5.21
Sorption ([6]; Sample RH % 75): 5.22%
Desorption ([6]; Sample RH % 75): 5.31
Sorption ([6]; Sample RH % 85): 5.24%
Desorption ([6]; Sample RH % 85): 5.33
Sorption ([6]; Sample RH % 95): 5.37%
Desorption ([6]; Sample RH % 95): 5.37
Structure (SMILES): Cc1[nH]c2ccccc2c1CCNCc1ccc(/C=C/C(=O)NO)cc1 [Free Base, N-hydroxy-3-[4-[[[2-(2-methyl-1H-indol-3-yl)ethyl]amino]methyl]phenyl]-2E-2-propenamide]

hygroscopicity [2]: hygroscopic
Structure (SMILES): Cc1[nH]c2ccccc2c1CCNCc1ccc(/C=C/C(=O)NO)cc1 [Form B of the tartarate salt, N-hydroxy-3-[4-[[[2-(2-methyl-1H-indol-3-yl)ethyl]amino]methyl]phenyl]-2E-2-propenamide]

XRPD form after equilibration ([1]; Methanol): converts to form SA
form after equilibration at pH 1 and 2 [1]: the chloride salt is formed
form conversion under most circumstances [1]: slowly converts into form A
hygroscopicity [2]: slightly hygroscopic
Structure (SMILES): Cc1[nH]c2ccccc2c1CCNCc1ccc(/C=C/C(=O)NO)cc1 (racemic) [Form HA of the DL-lactate salt, N-hydroxy-3-[4-[[[2-(2-methyl-1H-indol-3-yl)ethyl]amino]methyl]phenyl]-2E-2-propenamide]

hygroscopicity [2]: very highly hygroscopic
Structure (SMILES): Cc1[nH]c2ccccc2c1CCNCc1ccc(/C=C/C(=O)NO)cc1 [yellow powder, N-hydroxy-3-[4-[[[2-(2-methyl-1H-indol-3-yl)ethyl]amino]methyl]phenyl]-2E-2-propenamide]

solubility in hot ethanol ([4]; listed as form B): insoluble
Structure (SMILES): Cc1[nH]c2ccccc2c1CCNCc1ccc(/C=C/C(=O)NO)cc1 [free base form B, N-hydroxy-3-[4-[[[2-(2-methyl-1H-indol-3-yl)ethyl]amino]methyl]phenyl]-2E-2-propenamide]

Second part, the molecule before the results:

Structure (SMILES): Cc1[nH]c2ccccc2c1CCNCc1ccc(/C=C/C(=O)NO)cc1 (racemic) [Form A of the DL-lactate salt, N-hydroxy-3-[4-[[[2-(2-methyl-1H-indol-3-yl)ethyl]amino]methyl]phenyl]-2E-2-propenamide]
form observed on equilibration ([1]; at 0° C. and 10° C. and in acetone/water mixture): observed along with form HA
relative stability of the form ([1]; in water and in most organic solvents): more stable than the other forms of the DL-lactate salt
form after equilibration at pH 1 and 2 [1]: the chloride salt is formed
form conversion under most circumstances [1]: does not convert into any other form
hygroscopicity [2]: slightly hygroscopic

Structure (SMILES): Cc1[nH]c2ccccc2c1CCNCc1ccc(/C=C/C(=O)NO)cc1 [Form A of the phosphate salt, N-hydroxy-3-[4-[[[2-(2-methyl-1H-indol-3-yl)ethyl]amino]methyl]phenyl]-2E-2-propenamide]
aqueous solubility [3]: ~6000 µg/mL

Structure (SMILES): Cc1[nH]c2ccccc2c1CCNCc1ccc(/C=C/C(=O)NO)cc1 [Form A of the benzoate salt, N-hydroxy-3-[4-[[[2-(2-methyl-1H-indol-3-yl)ethyl]amino]methyl]phenyl]-2E-2-propenamide]
aqueous solubility [3]: ~700 µg/mL

Structure (SMILES): Cc1[nH]c2ccccc2c1CCNCc1ccc(/C=C/C(=O)NO)cc1 [Form A of the hemi-fumarate salt, N-hydroxy-3-[4-[[[2-(2-methyl-1H-indol-3-yl)ethyl]amino]methyl]phenyl]-2E-2-propenamide]
aqueous solubility [3]: ~400 µg/mL

Structure (SMILES): Cc1[nH]c2ccccc2c1CCNCc1ccc(/C=C/C(=O)NO)cc1 [Form A of the acetate salt, N-hydroxy-3-[4-[[[2-(2-methyl-1H-indol-3-yl)ethyl]amino]methyl]phenyl]-2E-2-propenamide]
aqueous solubility [3]: ~2000 µg/mL

Structure (SMILES): Cc1[nH]c2ccccc2c1CCNCc1ccc(/C=C/C(=O)NO)cc1 [Form A of the L-tartarate salt, N-hydroxy-3-[4-[[[2-(2-methyl-1H-indol-3-yl)ethyl]amino]methyl]phenyl]-2E-2-propenamide]
XRPD form after equilibration ([1]; 0.1 N HCl): chloride salt
XRPD form after equilibration ([1]; 2-Propanol): No change
XRPD form after equilibration ([1]; Acetone): Form C of the tartarate salt is obtained
XRPD form after equilibration ([1]; Acetone, listed as L-Tartarate): No change
XRPD form after equilibration ([1]; Ethanol): No change
XRPD form after equilibration ([1]; Ethyl Acetate): No change
XRPD form after equilibration ([1]; Methanol): converts to form C
XRPD form after equilibration ([1]; Methanol, listed as L-Tartarate): Changed to new
XRPD form after equilibration ([1]; pH = 6.8 buffer (phosphate)): free base
XRPD form after equilibration ([1]; water): No change
solubility in acetone, ethyl acetate and other common organic solvents ([4]; acetone, ethyl acetate and other common organic solvents): good solubility
solubility in alcohols ([4]; alcohols): limited solubility
aqueous solubility [3]: 3500 µg/mL
hygroscopicity [2]: slightly hygroscopic
moisture at 85% r.h. ([6]; 85% r.h.): less than 0.5%
Sorption ([6]; Sample RH % 1.5): 0%
Sorption ([6]; Sample RH % 5): 0.04%
Desorption ([6]; Sample RH % 5): −0.09
Sorption ([6]; Sample RH % 25): 0.11%
Desorption ([6]; Sample RH % 25): 0.03
Sorption ([6]; Sample RH % 50): 0.2%
Desorption ([6]; Sample RH % 50): 0.16
Sorption ([6]; Sample RH % 75): 0.31%
Desorption ([6]; Sample RH % 75): 0.36
Sorption ([6]; Sample RH % 85): 0.35%
Desorption ([6]; Sample RH % 85): 0.42
Sorption ([6]; Sample RH % 95): 0.49%
Desorption ([6]; Sample RH % 95): 0.49
intrinsic dissolution [7]: good

Structure (SMILES): Cc1[nH]c2ccccc2c1CCNCc1ccc(/C=C/C(=O)NO)cc1 [Form A of the hemi-succinate salt, N-hydroxy-3-[4-[[[2-(2-methyl-1H-indol-3-yl)ethyl]amino]methyl]phenyl]-2E-2-propenamide]
aqueous solubility [3]: ~400 µg/mL

Structure (SMILES): Cc1[nH]c2ccccc2c1CCNCc1ccc(/C=C/C(=O)NO)cc1 [Form A of the hemi-malate salt, N-hydroxy-3-[4-[[[2-(2-methyl-1H-indol-3-yl)ethyl]amino]methyl]phenyl]-2E-2-propenamide]
aqueous solubility [3]: ~1400 µg/mL

Structure (SMILES): Cc1[nH]c2ccccc2c1CCNCc1ccc(/C=C/C(=O)NO)cc1 [Form A of the propionate salt, N-hydroxy-3-[4-[[[2-(2-methyl-1H-indol-3-yl)ethyl]amino]methyl]phenyl]-2E-2-propenamide]
aqueous solubility [3]: ~4000 µg/mL
